Reference: ChEMBL document CHEMBL1212803, “Resistance-associated mutations to etravirine (TMC-125) in antiretroviral-naïve patients infected with non-B HIV-1 subtypes” (2010)

Key:
Type in all cases: functional
[1] = system: Human immunodeficiency virus 1; experiment: Antiviral activity against HIV-1 subtype CRF02_AG containing reverse transcriptase Y181C/V35T, V60I, I135V, S162A, K173T, Q174K, N175Y, D177E, T200A, Q207E, R211K, H221Y mutant relative to control
[2] = system: Human immunodeficiency virus 1; experiment: Antiviral activity against HIV-1 subtype CRF02_AG containing reverse transcriptase V90I,Y181C/V35T, T39M, P119S, D123E, S162A, E169D, K173T, Q174K, D177E, T200A, Q207E, K219N, V245Q, E248D mutant relative to control
[3] = system: Human immunodeficiency virus 1; experiment: Antiviral activity against HIV-1 subtype CRF02_AG containing reverse transcriptase E138A/K20R, V35T, E36A, T39D, V60I, I135V, T139I, K173A, Q174K, T200E, Q207A, R211K, F214L mutant relative to control
[4] = system: Human immunodeficiency virus 1; experiment: Antiviral activity against HIV-1 subtype CRF02_AG containing reverse transcriptase K101E/K30E, I31P, V35Q, T39S, E44G, E53G, A62G, N81H, Q91H,I135V,S162A, K173S, Q174R, D177E, V179I, T200I, Q207N, R211K, F214L mutant relative to control
[5] = system: Human immunodeficiency virus 1; experiment: Antiviral activity against HIV-1 subtype CRF02_AG containing reverse transcriptase E138A/K20R, V35T, E36D, T39N, V60I, D123N, I135V, S162A, K173T, Q174K, D177E, T200A, Q207E, R211K mutant relative to control
[6] = system: Human immunodeficiency virus 1; experiment: Antiviral activity against HIV-1 subtype CRF02_AG containing reverse transcriptase A98G/V35T, V60I, I135L, S162A, K173A, Q174K, D177E, I178M, T200A,Q207E, R211K, V245Q, D250E mutant relative to control
[7] = system: Human immunodeficiency virus 1; experiment: Antiviral activity against HIV-1 subtype CRF02_AG containing reverse transcriptase V90I,A98G/V35T, E36D, T39K, S48A, I50V, V60I, S68G, I135V, S162A, K173T, Q174K, D177E, G196E, T200A, E203G, Q207D, R211K, Q222P mutant relative to control
[8] = system: Human immunodeficiency virus 1; experiment: Antiviral activity against HIV-1 subtype CRF02_AG containing reverse transcriptase V90I/V35T, T39M, K46Q, V60I, S68G, D123E, I135V, S162A, K173A, Q174K,D177E, T200A, Q207E, R211K mutant relative to control
[9] = system: Human immunodeficiency virus 1; experiment: Antiviral activity against HIV-1 subtype CRF02_AG containing reverse transcriptase V90I/V35T, E36D, V60I, K122E, D123S, I135V, E138D, S162A, K173T,Q174S, D177E, I178M, V189I, T200A, I202V, Q207E, F214L, V245Q mutant relative to control

With `Cc1ccnc2c1NC(=O)c1cccnc1N2C1CC1` [NEVIRAPINE] the “Ratio IC50” value [1] was >49.6, the “Ratio IC50” value [2] was >70.9 and the “Ratio IC50” value [3] was 0.5. The “Ratio IC50” value [4] was 2.2, the “Ratio IC50” value [5] was 0.4 and the “Ratio IC50” value [6] was 8.3. For the same compound, the “Ratio IC50” value [7] was 2.4, the “Ratio IC50” value [8] was 1.3 and the “Ratio IC50” value [9] was 0.7.
`Cc1cc(C#N)cc(C)c1Oc1nc(Nc2ccc(C#N)cc2)nc(N)c1Br` [ETRAVIRINE] was tested, and the “Ratio IC50” value [1] was 11.1, the “Ratio IC50” value [2] was 3.3 and the “Ratio IC50” value [3] was 3. The “Ratio IC50” value [4] was 1.3, the “Ratio IC50” value [5] was 1.7 and the “Ratio IC50” value [6] was 2.9. For the same compound, the “Ratio IC50” value [7] was 1.2, the “Ratio IC50” value [8] was 1.6 and the “Ratio IC50” value [9] was 1.3.
